Measured values reported in patent US10226041B2, “Compositions and methods for improving the quality of processed sperm” (Inguran, LLC, priority 2011, dated 2019).
Where “and” joins values, the source holds several entries; their conditions need not be identical. Identical values can stand only once.

Key:
[1] = system: slaughterhouse oocytes fertilized with sex sorted sperm; assay: IVF: development of eggs fertilized with OSR treated sex sorted sperm; assay type: cell-based, bovine; conditions: 3 step
Experimental: 1. Oocyte Collection. Collect slaughterhouse oocytes, wash 1× with about 3 mL Hepes washing media and with 1× with TCM-199 (Invitrogen, Carlsbad, Calif.)+10% Fetal Bovine Serum (FBS). Culture in maturation media for 22 hrs in a CO2 incubator at 38.5° C. In one embodiment, the maturation media contains TCM-199, FBS, pyruvate, chorionic gonadotropin (e.g., Chorulon (Intervet, Summit N.J.)), follicle stimulating hormone (FSH) (e.g., Folltropin (Bioniche, Belleville, Canada)), estradiol, and at least one antibiotic. In a further embodiment, Amikacin (Sigma-Aldrich, St. Louis, Mo.) can be used as the antibiotic. In another embodiment, the maturation media may also comprise luteinizing hormone.
2. In Vitro Fertilization. Trim away cumulus cells from matured oocytes. Transfer them to a fertilization dish and return to the CO2 incubator. Thaw frozen semen straws using standard procedures, centrifuge in […], of Pure Sperm gradient (Nidacon, Molndal, Sweden), or a percoll or similar gradient at 2500 RPM for 10 minutes to remove egg components, glycerol and other debris. Remove supernatant, leaving a loose pellet of live sperm. Combine pellets using a small amount of fertilization media and repellet at 1500 RPM for 3 minutes. Carefully remove supernatant. Then gently mix the pellet. After determining the desired insemination dose, inseminate the oocytes by adding sperm to the pellet, then culture in a dish and return to the CO2 incubator for about 18-22 hours.
3. In Vitro Culture. Remove presumptive zygotes from the fertilization dish and transfer into a sterile 1.5 mL eppendorf tube. Allow zygotes to form a loose pellet and remove excess media to form a 1:1 ratio of pellet and solution. Rinse the eppendorf tube with TCM-199, place contents into a dish and wash with BSA media. Then culture presumptive zygotes (discard disfigured oocytes, as well as oocytes with yellow colored cytoplasm or vacuolated cytoplasm) in a dual gas incubator (5% CO2, 5% O2) at 38.5° C. for about 48 hours.
4. Co-Culture. Transfer cleaved zygotes to co-culture dishes comprising the cumulus cells from the mature oocytes and FBS media topped with mineral oil, and incubate in a CO2 incubator at 38.5° C. until needed.
An experiment was designed to test the effect of OSR treated sperm cells on the development of eggs fertilized with those sperm cells. In this experiment, bull semen from two bulls was sex sorted with flow cytometry, with vitamin B12 present at equal concentrations in the media used to stain the sperm cells, in the catch fluid of the collecting vessel and in the cryoprotectant extender prior to freezing the sex sorted sample (3 step). For each bull, three different concentrations of vitamin B12 were tested: 0.05 mg/ml, 0.15 mg/ml and 0.25 mg/ml. The control samples were not treated with vitamin B12.
Slaughterhouse oocytes were collected and washed 1× with about 3 mL Hepes washing media and with 1× with TCM-199+10% FBS. The oocytes were then cultured in maturation media for 22 hrs in a CO2 incubator at 38.5° C. Cumulus cells were trimmed away from matured oocytes, transferred to a fertilization dish, and returned to the CO2 incubator.
Frozen semen straws were thawed using standard procedures and centrifuged in […], of Pure Sperm gradient at 2500 RPM for 10 minutes in order to remove egg, glycerol and other debris. The supernatant was removed, leaving a loose pellet of live sperm. Pellets were combined using a small amount of fertilization media and repelleted at 1500 RPM for 3 minutes. The supernatant was then carefully removed and the pellet gently mixed. After determining the desired insemination dose, the matured oocytes were then inseminated by adding sperm to the pellet, cultured in a dish and returned to the CO2 incubator for about 18-22 hours.
Presumptive zygotes were removed from the fertilization dish and transferred into a sterile 1.5 ml eppendorf tube. […]

[2] = system: sex-sorted sperm; assay: DNA fragmentation of sex-sorted sperm (Halomax for animals kit); assay type: cell-based, cattle
Experimental: The levels of DNA fragmentation were also screened using a DNA fragmentation ‘Halomax for animals’ kit (Halotech DNA, sl, Madrid, Spain) to determine if there were any advantageous effects of using the antioxidants during the staining and processing of sex-sorted sperm. Two different breeds of cattle, Jersey and Holstein, were examined using two different concentrations of antioxidant, 0.25 mg/ml and 0.5 mg/ml of vitamin B12 with the 3 step protocol adding the same concentration of OSR during cell staining, in the collection catch fluid and prior to cryopreservation. One of the bulls was used to evaluate the effect of addition or omission of OSR at one or more of the sperm sorting steps. Motility and the level of DNA fragmentation were both recorded.

[3] = 0.05 mg/ml, Table 4 replicates, Bulls A, B
[4] = 0.5 mg/ml, Table 5 Total/Avg per bull (A Holstein, B Jersey), Holstein bull
[5] = 0.5 mg/ml, Table 5 Total/Avg per bull (A Holstein, B Jersey), Jersey bull
[6] = 0.5 mg/ml, Table 5 replicates, Bull A (Holstein), Bull B (Jersey), Holstein bull
[7] = 0.5 mg/ml, Table 5 replicates, Bull A (Holstein), Bull B (Jersey), Jersey bull

vitamin B12
4-2C, Total/Avg ([1]; 0.05 mg/ml, Table 4 Total/Avg per bull (A, B)): 66 and 63
4-2C (zygotes at 2 cell to 4 cell transition 48 hours after IVF) [1, 3]: 20 (2×) and 26 and 18 and 23 and 22
8C % (zygotes having 8 cells 48 hours after IVF) [1, 3]: 3.4% and 9.5% and 11.7% and 44.4% and 29.3% and 29.0%
8C (zygotes with 8 cells 48 hours after IVF) [1, 3]: 3 and 9 and 11 and 40 and 27 (2×)
% Clv (percent cleaved 48 hours after IVF) [1, 3]: 26.4% and 36.8% and 33.0% and 64.4% and 54.3% and 52.7%
Blast % (cultured zygotes resulting in blastocyst formation) [1, 3]: 1.1% and 2.1% and 4.3% and 21.1% and 16.3% and 22.6%
C1 (expanded, hatching and hatched blastocysts 7 days after IVF) [1, 3]: 0 (2×) and 1 and 2 and 4 and 5
C1− (blastocysts 7 days after IVF) [1, 3]: 0 (2×) and 3 (2×) and 4 and 2
C2 (early blastocysts and compact morulas 7 days after IVF) [1, 3]: 1 (3×) and 13 (2×) and 9
Hatch # (embryos shedding the zona, 8.5 days after IVF) [1, 3]: 0 and 1 (2×) and 9 and 7 and 8
Hatch % (embryos that shed the zona) [1, 3]: 0.0% and 50.0% and 25.0% and 47.4% and 46.7% and 38.1%
Total Embs (total number of blastocysts) [1, 3]: 1 and 2 and 4 and 19 and 15 and 21
4-2C, Total/Avg [1, 4]: 72
8C %, Total/Avg [1, 4]: 35.1%
8C, Total/Avg [1, 4]: 99
C1−, Total/Avg [1, 4]: 17
C2, Total/Avg [1, 4]: 18
Hatch #, Total/Avg [1, 4]: 16
Total Embs, Total/Avg [1, 4]: 41
4-2C, Total/Avg [1, 5]: 86
8C %, Total/Avg [1, 5]: 35.4%
8C, Total/Avg [1, 5]: 104
C1−, Total/Avg [1, 5]: 22
C2, Total/Avg [1, 5]: 13
Hatch #, Total/Avg [1, 5]: 20
Total Embs, Total/Avg [1, 5]: 52
4-2C (zygotes at 2 cell to 4 cell transition 48 hours after IVF) [1, 6]: 25 and 29 and 18
8C % (zygotes having 8 cells 48 hours after IVF) [1, 6]: 36.2% and 31.6% and 37.6%
8C (zygotes with 8 cells 48 hours after IVF) [1, 6]: 34 and 30 and 35
% Clv (percent cleaved 48 hours after IVF) [1, 6]: 62.8% and 62.1% and 57.0%
Blast % (cultured zygotes resulting in blastocyst formation) [1, 6]: 6.4% and 15.8% and 21.5%
C1 (expanded, hatching and hatched blastocysts 7 days after IVF) [1, 6]: 0 and 1 and 5
C1− (blastocysts 7 days after IVF) [1, 6]: 3 and 7 (2×)
C2 (early blastocysts and compact morulas 7 days after IVF) [1, 6]: 3 and 7 and 8
Hatch # (embryos shedding the zona, 8.5 days after IVF) [1, 6]: 1 and 4 and 11
Hatch % (embryos that shed the zona) [1, 6]: 16.7% and 26.7% and 55.0%
Total Embs (total number of blastocysts) [1, 6]: 6 and 15 and 20
4-2C (zygotes at 2 cell to 4 cell transition 48 hours after IVF) [1, 7]: 40 and 31 and 15
8C % (zygotes having 8 cells 48 hours after IVF) [1, 7]: 34.0% and 25.3% and 46.5%
8C (zygotes with 8 cells 48 hours after IVF) [1, 7]: 34 and 24 and 46
% Clv (percent cleaved 48 hours after IVF) [1, 7]: 74.0% and 57.9% and 61.6%
Blast % (cultured zygotes resulting in blastocyst formation) [1, 7]: 11.0% and 24.2% and 18.2%
C1 (expanded, hatching and hatched blastocysts 7 days after IVF) [1, 7]: 4 and 5 and 8
C1− (blastocysts 7 days after IVF) [1, 7]: 6 and 11 and 5
C2 (early blastocysts and compact morulas 7 days after IVF) [1, 7]: 1 and 7 and 5
Hatch # (embryos shedding the zona, 8.5 days after IVF) [1, 7]: 5 and 6 and 9
Hatch % (embryos that shed the zona) [1, 7]: 45.5% and 26.1% and 50.0%
Total Embs (total number of blastocysts) [1, 7]: 11 and 23 and 18
% DNA Fragmentation ([2]; 0 hr, 1 step-stain (+−−), Bull C (Jersey), Trial 1): 0.7%
% DNA Fragmentation ([2]; 0 hr, 1 step-stain (+−−), Bull C (Jersey), Trial 2): 0.7%
% DNA Fragmentation ([2]; 0 hr, 2 step-stain (++−), Bull C (Jersey), Trial 1): 0.3%
% DNA Fragmentation ([2]; 0 hr, 2 step-stain (++−), Bull C (Jersey), Trial 2): 0.3%
% DNA Fragmentation ([2]; 0 hr, 3 step (+++), Bull C (Jersey), Trial 1): 0%
% DNA Fragmentation ([2]; 0 hr, 3 step (+++), Bull C (Jersey), Trial 2): 0.3%
% DNA Fragmentation ([2]; 0 hr, vitamin B12 0.5 mg/ml, 3 step, Bull A (Jersey)): 0.3%
% DNA Fragmentation ([2]; 0 hr, vitamin B12 0.5 mg/ml, 3 step, Bull B (Holstein)): 0.3%
% DNA Fragmentation ([2]; 24 hr, 1 step-stain (+−−), Bull C (Jersey), Trial 1): 1%
% DNA Fragmentation ([2]; 24 hr, 1 step-stain (+−−), Bull C (Jersey), Trial 2): 1%
% DNA Fragmentation ([2]; 24 hr, 2 step-stain (++−), Bull C (Jersey), Trial 1): 1%
% DNA Fragmentation ([2]; 24 hr, 2 step-stain (++−), Bull C (Jersey), Trial 2): 0.7%
% DNA Fragmentation ([2]; 24 hr, 3 step (+++), Bull C (Jersey), Trial 1): 0.3%
% DNA Fragmentation ([2]; 24 hr, 3 step (+++), Bull C (Jersey), Trial 2): 0.3%
% DNA Fragmentation ([2]; 24 hr, vitamin B12 0.5 mg/ml, 3 step, Bull A (Jersey)): 0.7%
% DNA Fragmentation ([2]; 24 hr, vitamin B12 0.5 mg/ml, 3 step, Bull B (Holstein)): 0.3%
% DNA Fragmentation ([2]; 48 hr, 1 step-stain (+−−), Bull C (Jersey), Trial 1): 1.3%
% DNA Fragmentation ([2]; 48 hr, 1 step-stain (+−−), Bull C (Jersey), Trial 2): 1%
% DNA Fragmentation ([2]; 48 hr, 2 step-stain (++−), Bull C (Jersey), Trial 1): 1%
% DNA Fragmentation ([2]; 48 hr, 2 step-stain (++−), Bull C (Jersey), Trial 2): 0.7%
% DNA Fragmentation ([2]; 48 hr, 3 step (+++), Bull C (Jersey), Trial 1): 0.3%
% DNA Fragmentation ([2]; 48 hr, 3 step (+++), Bull C (Jersey), Trial 2): 0.7%
% DNA Fragmentation ([2]; 48 hr, vitamin B12 0.5 mg/ml, 3 step, Bull A (Jersey)): 1.3%
% DNA Fragmentation ([2]; 48 hr, vitamin B12 0.5 mg/ml, 3 step, Bull B (Holstein)): 0.7%
